{"source": "patent US4226879A", "about": "“Antibiotic composition” (Kyowa Hakko Kogyo Kabushiki Kaisha, priority 1976, dated 1980)", "key": {"[1]": {"system": "S. aureus KB-64 (tetracycline & erythromycin-resistant)", "assay": "MIC, agar dilution method", "assay_type": "cell-based", "settings": "Staphylococcus aureus; pH 7.0, 37° C., 18 hours"}, "Staphylococcus aureus": {"system": "Staphylococcus aureus", "assay": "antibacterial activity", "assay_type": "cell-based"}, "Sacchromyces cerevisiae": {"system": "Sacchromyces cerevisiae", "assay": "MIC, agar dilution method", "assay_type": "cell-based", "settings": "pH 6.8, 27° C. 72 hours"}, "Shigella sonnei E-33": {"system": "Shigella sonnei E-33", "assay": "MIC, agar dilution method", "assay_type": "cell-based", "settings": "E33, pH 7.0, 37° C., 18 hours", "procedure": "(§1) Table 1 indicates the antibacterial and antifungal activity of AM-1042 as minimum inhibitory concentration (mcg/ml) determined by the agar dilution method.\n(§2) *Peptone 0.5%; meat extract 0.5%; agar 1.2% (pH 7.0), 37° C., 18"}, "B. agri": {"system": "B. agri", "assay": "MIC, agar dilution method", "assay_type": "cell-based", "settings": "pH 7.0, 37° C., 18 hours", "procedure": "as §1, §2"}, "E. coli B": {"system": "E. coli B", "assay": "MIC, agar dilution method", "assay_type": "cell-based", "settings": "Escherichia coli; pH 7.0, 37° C., 18 hours", "procedure": "as §1, §2"}, "S. albus": {"system": "S. albus", "assay": "MIC, agar dilution method", "assay_type": "cell-based", "settings": "pH 7.0, 37° C., 18 hours", "procedure": "as §1, §2"}, "Gram-negative bacteria": {"system": "Gram-negative bacteria", "assay": "growth inhibition, agar dilution method", "assay_type": "cell-based", "settings": "at concentration below 100 mcg/ml", "procedure": "as §1, §2"}, "[2]": {"system": "Proteus vulgaris IFO 3163", "assay": "MIC, agar dilution method", "assay_type": "cell-based", "settings": "IFO3163, pH 7.0, 37° C., 18 hours"}, "[3]": {"system": "S. aureus FS-1277 (penicillin-resistant)", "assay": "MIC, agar dilution method", "assay_type": "cell-based", "settings": "Staphylococcus aureus; pH 7.0, 37° C., 18 hours"}, "B. subtilis NRRL B-558": {"system": "B. subtilis NRRL B-558", "assay": "MIC, agar dilution method", "assay_type": "cell-based", "settings": "Bacillus subtilis, NRRLB558; pH 7.0, 37° C., 18 hours"}, "Eimeria acervulina": {"system": "Eimeria acervulina", "assay": "anticoccidial activity", "assay_type": "in vivo"}, "[4]": {"system": "Corynebacterium paurometabolum", "assay": "MIC, agar dilution method", "assay_type": "cell-based", "settings": "Tsukamurella paurometabola; pH 7.0, 37° C., 18 hours"}, "[5]": {"system": "Pseudomonas aerginosa P-3", "assay": "MIC, agar dilution method", "assay_type": "cell-based", "settings": "P3, pH 7.0, 37° C., 18 hours"}, "[6]": {"system": "Klebsiella pneumoniae PCI 602", "assay": "MIC, agar dilution method", "assay_type": "cell-based", "settings": "PCI602, pH 7.0, 37° C., 18 hours"}, "Nocardia asteroides": {"system": "Nocardia asteroides", "assay": "MIC, agar dilution method", "assay_type": "cell-based"}, "B. cereus T": {"system": "B. cereus T", "assay": "MIC, agar dilution method", "assay_type": "cell-based"}, "Eimeria tenella": {"system": "Eimeria tenella", "assay": "anticoccidial activity", "assay_type": "in vivo"}, "[7]": {"system": "Trichophyton mentagrophytes", "assay": "MIC, agar dilution method", "assay_type": "cell-based", "settings": "pH 6.8, 27° C. 72 hours"}, "in vivo": {"assay": "in vivo", "settings": "mouse, ip"}, "Xanthomonas oryzae": {"system": "Xanthomonas oryzae", "assay": "microbe, parasite or virus in culture", "assay_type": "cell-based", "settings": "72 h, pH 6.8"}, "Piricularia oryzae": {"system": "Piricularia oryzae", "assay": "microbe, parasite or virus in culture", "assay_type": "cell-based", "settings": "72 h, pH 6.8"}, "poultry [8]": {"system": "poultry", "assay": "growth-promoting effect in poultry", "assay_type": "in vivo", "settings": "0.001 to 0.02% by weight of the diet", "text": "Thus, AM-1042 is potentially of interest owing to its growth-promoting effect. For this purpose, the mode of administration is analogous to those described above."}, "B. anthracis": {"system": "B. anthracis", "assay": "microbe, parasite or virus in culture", "assay_type": "cell-based", "settings": "Bacillus anthracis, 18 h, pH 7"}, "Eimeria brunetti": {"system": "Eimeria brunetti", "assay": "anticoccidial activity", "assay_type": "in vivo"}, "[9]": {"system": "Mycobacterium smegmatis ATCC 607", "assay": "MIC, agar dilution method", "assay_type": "cell-based", "settings": "Mycolicibacterium smegmatis, ATCC607; pH 7.0, 37° C., 18 hours"}, "mice": {"system": "mice", "settings": "mouse, in vivo, 450 mg/kg"}, "Sclerotinia cinerea": {"system": "Sclerotinia cinerea", "assay": "MIC, agar dilution method", "assay_type": "cell-based", "settings": "pH 6.8, 27° C. 72 hours"}, "poultry [10]": {"system": "poultry", "assay": "side effects in poultry", "assay_type": "in vivo, poultry such as chickens", "settings": "pharmaceutical composition or assorted diet, chickens, turkeys"}, "Eimeria necatrix": {"system": "Eimeria necatrix", "assay": "anticoccidial activity", "assay_type": "in vivo"}, "Alternaria kikuchiana": {"system": "Alternaria kikuchiana", "assay": "MIC, agar dilution method", "assay_type": "cell-based", "settings": "pH 6.8, 27° C. 72 hours"}, "B. subtilis ATCC 6633": {"system": "B. subtilis ATCC 6633", "assay": "MIC, agar dilution method", "assay_type": "cell-based", "settings": "Bacillus subtilis, ATCC6633; pH 7.0, 37° C., 18 hours"}, "[11]": {"assay": "solubility in various solvents", "assay_type": "physicochemical"}, "Salmonella typhimurium": {"system": "Salmonella typhimurium", "assay": "MIC, agar dilution method", "assay_type": "cell-based", "settings": "Salmonella enterica, pH 7.0, 37° C., 18 hours"}, "Fusarium oxysporum": {"system": "Fusarium oxysporum", "assay": "MIC, agar dilution method", "assay_type": "cell-based", "settings": "pH 6.8, 27° C. 72 hours"}, "Botrytis cinerea": {"system": "Botrytis cinerea", "assay": "MIC, agar dilution method", "assay_type": "cell-based", "settings": "pH 6.8, 27° C. 72 hours"}, "Aspergillus niger": {"system": "Aspergillus niger", "assay": "MIC, agar dilution method", "assay_type": "cell-based", "settings": "pH 6.8, 27° C. 72 hours"}, "fungi": {"system": "fungi", "assay": "antifungal activity, agar dilution method", "assay_type": "cell-based", "settings": "at a concentration below 100 mcg/ml", "text": "as §1\n**Potato extract containing glucose 1.0% and agar 1.2% (pH 6.8),"}}, "note": "Entries after “also recorded” stand apart in the source; their conditions may differ.", "data": [{"smiles": "O=C(/C=C/C=C/C=C/C1CCCCC1)NC1=CC(O)(/C=C/C=C/C=C/C(=O)NC2=C(O)CCC2=O)C2OC2C1=O", "note": "(stereo not drawn) [AM-1042]", "values": [{"measurement": "MIC", "setting": "[1]", "result": 6.2, "unit": "µg/mL"}, {"measurement": "activity upon Staphylococcus aureus", "setting": "Staphylococcus aureus", "result": "active"}, {"measurement": "MIC", "setting": "Sacchromyces cerevisiae", "result": "> 100", "unit": "µg/mL"}, {"measurement": "MIC", "setting": "Shigella sonnei E-33", "result": "> 100", "unit": "µg/mL"}, {"measurement": "MIC", "setting": "B. agri", "result": 12.5, "unit": "µg/mL"}, {"measurement": "MIC", "setting": "E. coli B", "result": "> 100", "unit": "µg/mL"}, {"measurement": "MIC", "setting": "S. albus", "result": 12.5, "unit": "µg/mL"}, {"measurement": "effect on Gram-negative bacteria", "setting": "Gram-negative bacteria", "result": "no significant effect"}, {"measurement": "MIC", "setting": "[2]", "result": "> 100", "unit": "µg/mL"}, {"measurement": "MIC", "setting": "[3]", "result": 6.2, "unit": "µg/mL"}, {"measurement": "MIC", "setting": "B. subtilis NRRL B-558", "result": "> 100", "unit": "µg/mL"}, {"measurement": "activity upon coccidiosis", "setting": "Eimeria acervulina", "result": "significantly active"}, {"measurement": "MIC", "setting": "[4]", "result": 1.56, "unit": "µg/mL"}, {"measurement": "MIC", "setting": "[5]", "result": "> 100", "unit": "µg/mL"}, {"measurement": "MIC", "setting": "[6]", "result": "> 100", "unit": "µg/mL"}, {"measurement": "activity upon Nocarida asteroides", "setting": "Nocardia asteroides", "result": "active"}, {"measurement": "MIC", "setting": "Nocardia asteroides; Nocardia asteroides, pH 7.0, 37° C., 18 hours", "result": 1.56, "unit": "µg/mL"}, {"measurement": "activity upon Bacillus cereus", "setting": "B. cereus T", "result": "active"}, {"measurement": "MIC", "setting": "B. cereus T; Bacillus cereus, pH 7.0, 37° C., 18 hours", "result": 3.1, "unit": "µg/mL"}, {"measurement": "activity upon coccidiosis", "setting": "Eimeria tenella; Eimeria tenella, also when resistant to amprolium hydrochloride, clopidol, robenidine hydrochloride", "result": "significantly active"}, {"measurement": "reducing mortality of chicks", "setting": "Eimeria tenella; chicks infected with Eimeria tenella", "result": "effective in reducing mortality of chicks"}, {"measurement": "MIC", "setting": "[7]", "result": 25, "unit": "µg/mL"}, {"measurement": "LD50", "setting": "in vivo", "result": 48.5, "unit": "mg/kg"}, {"measurement": "MIC", "setting": "Xanthomonas oryzae", "result": "> 100", "unit": "µg/mL"}, {"measurement": "MIC", "setting": "Piricularia oryzae", "result": 100, "unit": "µg/mL"}, {"measurement": "growth-promoting effect", "setting": "poultry [8]", "result": "capable of promoting the growth of poultry; also recorded: exhibits a growth-promoting effect"}, {"measurement": "MIC", "setting": "B. anthracis", "result": 12.5, "unit": "µg/mL"}, {"measurement": "activity upon coccidiosis", "setting": "Eimeria brunetti", "result": "significantly active"}, {"measurement": "MIC", "setting": "[9]", "result": "> 100", "unit": "µg/mL"}, {"measurement": "side effect on mice", "setting": "mice", "result": "no side effect"}, {"measurement": "MIC", "setting": "Sclerotinia cinerea", "result": 100, "unit": "µg/mL"}, {"measurement": "side effects in poultry", "setting": "poultry [10]", "result": "without any side effects"}, {"measurement": "activity upon coccidiosis", "setting": "Eimeria necatrix", "result": "significantly active"}, {"measurement": "MIC", "setting": "Alternaria kikuchiana", "result": "> 100", "unit": "µg/mL"}, {"measurement": "MIC", "setting": "B. subtilis ATCC 6633", "result": 6.2, "unit": "µg/mL"}, {"measurement": "solubility", "setting": "[11]; in acetone", "result": "Soluble"}, {"measurement": "solubility", "setting": "[11]; in chloroform", "result": "Soluble"}, {"measurement": "solubility", "setting": "[11]; in dimethylformamide", "result": "Easily soluble"}, {"measurement": "solubility", "setting": "[11]; in dimethylsulfoxide", "result": "Easily soluble"}, {"measurement": "solubility", "setting": "[11]; in ethanol", "result": "Soluble"}, {"measurement": "solubility", "setting": "[11]; in ethyl acetate", "result": "Soluble"}, {"measurement": "solubility", "setting": "[11]; in fat", "result": "soluble in fat"}, {"measurement": "solubility", "setting": "[11]; in methanol", "result": "Soluble"}, {"measurement": "solubility", "setting": "[11]; in n-hexane", "result": "Insoluble"}, {"measurement": "solubility", "setting": "[11]; in petroleum ether", "result": "Insoluble"}, {"measurement": "solubility", "setting": "[11]; in water", "result": "Insoluble"}, {"measurement": "MIC", "setting": "Salmonella typhimurium", "result": "> 100", "unit": "µg/mL"}, {"measurement": "MIC", "setting": "Fusarium oxysporum", "result": "> 100", "unit": "µg/mL"}, {"measurement": "MIC", "setting": "Botrytis cinerea", "result": "> 100", "unit": "µg/mL"}, {"measurement": "MIC", "setting": "Aspergillus niger", "result": "> 100", "unit": "µg/mL"}, {"measurement": "activity on fungi", "setting": "fungi", "result": "no significant activity"}]}]}
